Data set [1] has as its system cancer stem cells (CD44high/CD24low) and cancer cells (CD44low/CD24high) of transformed MCF-10A or MCF-7 cells. As to conditions: doxorubicin, 0.1 mM metformin, or both; FIG. 3A.
Data set [2] has as its system MCF10A ER-Src xenograft tumors.
For data set [3], the system named is cancer stem cells (CD44high/CD24low) from MCF10A-ER-Src tumors. As to conditions: after 3 cycles of treatment (day 25); FIG. 4B.
The test system of data set [4] is non-transformed cells (MCF10A-ER-Src). Put plainly: Growth of non-transformed MCF10A-ER-Src cells with metformin (FIG. 1A). Format: cell-based, human. As to conditions: 0.1 or 0.3 mM metformin, 24 hours.
For data set [5], the system named is MCF10A ER-Src cells. The data set is described as follows: Morphological transformation of TAM-induced MCF10A ER-Src cells (phase-contrast). Format: cell-based, human. The settings on record: 0.1 mM metformin and/or TAM for 36 hours; data not shown.
Data set [6] relates to MCF10A ER-Src cells. The data set is described as follows: Wound healing motility / invasion assay. The settings on record: 0.1 mM metformin and/or TAM; data not shown. The class given is cell-based, human.
The subject of data set [7] is MCF10A-ER-Src cells. The data set is described as follows: Focus formation of TAM-treated MCF10A-ER-Src cells (FIG. 1B). The class given is cell-based, human.
Data set [8] relates to MCF10A ER-Src cells. The data set is described as follows: Colony formation assay in soft agar (FIG. 1B). Format: cell-based, human. The settings on record: TAM-treated cells.
Data set [9] has as its system MCF10A-ER-Src cells. The data set is described as follows: Mammosphere formation (FIG. 1B). The settings on record: TAM-treated cells. Format: cell-based, human.
Data set [10] relates to mammospheres derived from all four breast cancer cell lines (MCF10A ER-Src, MCF7, SKBR3, MDA-MB-468). Put plainly: Mammosphere growth, 6-day old mammospheres (FIG. 2). The class given is cell-based, human. As to conditions: 0.1 mM metformin, within 48 hours.
For data set [11], the system named is sorted cancer stem cells and non-stem cancer cells of MCF10A ER-Src, MCF7, SKBR3 and MDA-MB-468. Put plainly: Growth of sorted cancer stem cells and non-stem cancer cells (FIG. 3B). Format: cell-based, human. As to conditions: 0.1 mM metformin, 0, 24, 48 hours, all four cancer cell lines.
For data set [12], the system named is MCF10A-ER-Src cancer stem cells. The data set is described as follows: Tumor formation in nude mice by metformin-pretreated cancer stem cells (FIG. 3C). Format: in vivo. As to conditions: cells treated with 0.1 mM metformin for 1 hour prior to injection, month after injection.
For data set [13] the following is noted: general statement; cited from earlier work.

Structures are written as SMILES.

Consider `COc1cccc2c1C(=O)c1c(O)c3c(c(O)c1C2=O)C[C@@](O)(C(=O)CO)C[C@@H]3O[C@H]1C[C@H](N)[C@H](O)[C@H](C)O1` [doxorubicin], for which the “killing of cancer stem cells versus cancer cells in the mixed transformed population” value in data set [1] is given as “kills cancer cells, but not cancer stem cells”. Besides, the “decrease in tumor volume” value in data set [2] (after 15 days of treatment (3 cycles every 5 days, i.p.), 4 mg/kg doxorubicin) is recorded as 2 fold. Moreover, the “time until tumor growth resumed after treatment” value in [2] (after treatment with doxorubicin alone, FIG. 4A) was 20 days. Moreover, the “rate of tumor growth after relapse” value in data set [2] (compared with absence of treatment) is “comparable to that observed in the initial disease”. The “tumor volume after an additional 10 days” value in [2] (day 35) is “further reduction in tumor volume”. The “cancer stem cells in tumors” value in data set [3] is “easily detected”.
As to `CN(C)C(=N)N=C(N)N` [metformin], the “growth of non-transformed cells” value in data set [4] is “does not affect the growth of non-transformed cells”. The morphological transformation result in the data set with MCF10A ER-Src cells [5] is recorded as “strongly inhibited”. Also, the “invasive growth in wound-healing assays” value with MCF10A ER-Src cells [6] is listed as “strongly inhibited”. Also, in the data set with MCF10A-ER-Src cells [7], the focus formation entry is given as “strongly inhibited”. In the data set on MCF10A ER-Src cells [8], the “formation of colonies in soft agar” value is “strongly inhibited”. Besides, the generation of mammospheres entry with MCF10A-ER-Src cells [9] was “strongly inhibited”. For the same compound, the number of mammospheres entry in [10] was “dramatic reduction in the number of mammospheres”. In [11], the “effect on sorted standard (non-stem) cancer cell population” value is recorded as “essentially unaffected” and the “susceptibility of sorted cancer stem cells” value is listed as “quite susceptible”. Besides, in data set [12], the “ability of cancer stem cells to form tumors in nude mice” value is “blocked the ability of these cells to form tumors”. The “killing of cancer stem cells versus cancer cells in the mixed transformed population” value in data set [1] is reported as “preferentially killed cancer stem cells”. For the same compound, in data set [2] (after 15 days of treatment (3 cycles every 5 days, i.p.), 4 mg/kg doxorubicin, 100 μg/ml metformin, or both), the “effect on tumors / tumor volume” value is reported as “little effect”. In addition, in data set [13], the “crossing of the blood brain barrier” value is on record as “can cross the blood brain barrier”.
